Experimental findings from US20140171357A1, “VANCOMYCIN DERIVATIVES” (Seachald Pharmaceuticals, Inc., priority 2011, published 2014) are described below.

What is called MIC50 is the lowest concentration that inhibits either 50% of growth or 50% of the strains tested, depending on the study. Broadly, the MIC90 is an inhibitory concentration at the 90% level, which refers to growth in some studies and to a panel of isolates in others. In general, MIC refers to the lowest concentration that inhibits growth of the organism. Lower therefore signals inhibition by little substance.

The structures appear in SMILES notation. In brackets after ≈: the same amount, converted by molar mass.

The subject of experiment [1] is vancomycin-susceptible E. faecalis (23). The experiment is described as follows: MIC broth microdilution, vancomycin-susceptible E. faecalis. The following applies: Enterococcus faecalis. In general terms: In broth dilution the organism is exposed to a series of concentrations in liquid medium.
The next experiment concerns VanC enterococci (22). The experiment is described as follows: MIC broth microdilution, vanC-carrying enterococci.
For experiment [2], the system named is Staphylococcus epidermidis (43 strains). As to the kind of experiment: MIC broth microdilution, S. epidermidis. Particulars: Staphylococcus epidermidis.
In experiment [3] the test system is VanA vancomycin-resistant E. faecalis (11). The experiment is described as follows: MIC broth microdilution, VanA E. faecalis. The following applies: Enterococcus faecalis.
Experiment [4] concerns VanB vancomycin-resistant E. faecalis (12). As to the kind of experiment: MIC broth microdilution, VanB E. faecalis. Particulars: Enterococcus faecalis.
For experiment [5], the system named is methicillin-resistant S. aureus (MRSA, 22). The experiment is described as follows: MIC broth microdilution, MRSA. Particulars: Staphylococcus aureus, MRSA.
The subject of experiment [6] is vancomycin-susceptible E. faecium (21). As to the kind of experiment: MIC broth microdilution, vancomycin-susceptible E. faecium. Particulars: Enterococcus faecium.
The test system of experiment [7] is VanB vancomycin-resistant E. faecium (10). The experiment is described as follows: MIC broth microdilution, VanB E. faecium. The following applies: Enterococcus faecium.
The next experiment has as its system E. faecalis. As to the kind of experiment: MIC broth microdilution, E. faecalis regardless of vancomycin susceptibility. The following applies: Enterococcus faecalis.
For experiment [8], the system named is VanA vancomycin-resistant E. faecium (10). The experiment is described as follows: MIC broth microdilution, VanA E. faecium. Particulars: Enterococcus faecium.
Experiment [9] relates to methicillin-susceptible S. aureus (MSSA, 22). The experiment is described as follows: MIC broth microdilution, MSSA. Particulars: Staphylococcus aureus, MSSA.
The subject of experiment [10] is Staphylococcus aureus (65 strains). The experiment is described as follows: MIC broth microdilution, S. aureus all isolates. The following applies: Staphylococcus aureus.
The next experiment has as its system B. anthracis Sterne 105. In kind it is cell-based, Bacillus anthracis. Particulars: Tween 80 0.002% medium, serum condition not stated.

`CCCCCCCCCC(=O)N[C@@H](Cc1c[nH]c2ccccc12)C(=O)N[C@H](CC(N)=O)C(=O)N[C@@H](CC(=O)O)C(=O)N[C@@H]1C(=O)NCC(=O)N[C@@H](CCCN)C(=O)N[C@@H](CC(=O)O)C(=O)N[C@H](C)C(=O)N[C@@H](CC(=O)O)C(=O)NCC(=O)N[C@H](CO)C(=O)N[C@@H]([C@H](C)CC(=O)O)C(=O)N[C@@H](CC(=O)c2ccccc2N)C(=O)O[C@@H]1C` [Daptomycin, reference compound]: the MIC50 in [1] came to 1 µg/mL (≈ 0.617 µM); against VanC enterococci (22) it was 1 µg/mL (≈ 0.617 µM); in [2] it was 0.25 µg/mL (≈ 0.154 µM); in [3] it was 1 µg/mL (≈ 0.617 µM); in experiment [4], 0.5 µg/mL (≈ 0.309 µM); in experiment [5] it was 0.25 µg/mL (≈ 0.154 µM). Moreover, the MIC50 is 2 µg/mL (≈ 1.23 µM) in [6]; 2 µg/mL (≈ 1.23 µM) in experiment [7]; 0.5 to 1 µg/mL (≈ 0.309 to 0.617 µM) against E. faecalis; 2 µg/mL (≈ 1.23 µM) in experiment [8]; 0.25 µg/mL (≈ 0.154 µM) in experiment [9]; 0.25 µg/mL (≈ 0.154 µM) in [10]. Moreover, the MIC90 amounted to 2 µg/mL (≈ 1.23 µM) in experiment [1]; 2 µg/mL (≈ 1.23 µM) against VanC enterococci (22); 0.5 µg/mL (≈ 0.309 µM) in experiment [2]; 2 µg/mL (≈ 1.23 µM) in experiment [3]; 1 µg/mL (≈ 0.617 µM) in experiment [4]; 0.5 µg/mL (≈ 0.309 µM) in experiment [5]. The MIC90 in [6] was 2 µg/mL (≈ 1.23 µM); in experiment [7], 2 µg/mL (≈ 1.23 µM); with E. faecalis, 1 to 2 µg/mL (≈ 0.617 to 1.23 µM); in experiment [8] it was 2 µg/mL (≈ 1.23 µM); in [9], 0.5 µg/mL (≈ 0.309 µM); in [10] it was 1 µg/mL (≈ 0.617 µM).

In the case of `CNC(CC(C)C)C(=O)NC1C(=O)NC(CC(N)=O)C(=O)NC2C(=O)NC3C(=O)NC(C(=O)NC(C(=O)NCCOCCOCCOCCN)c4cc(O)c(CNCCOCCOCCOCCN)c(O)c4-c4cc3ccc4O)C(O)c3ccc(c(Cl)c3)Oc3cc2cc(c3OC2OC(CO)C(O)C(O)C2OC2CC(C)(NCc3ccc(-c4ccc(Cl)cc4)cc3)C(O)C(C)O2)Oc2ccc(cc2Cl)C1O` (stereo not shown) [Compound 24], the MIC in the experiment with B. anthracis Sterne 105 came to 0.03 µg/mL (≈ 0.0148 µM).

In the case of `CC(=O)NC[C@H]1CN(c2ccc(N3CCOCC3)c(F)c2)C(=O)O1` [Linezolid, reference compound], the MIC50 in [1] is 1 µg/mL (≈ 2.96 µM); in the experiment with VanC enterococci (22), 1 µg/mL (≈ 2.96 µM); in experiment [2] it was 0.5 µg/mL (≈ 1.48 µM); in experiment [3], 1 µg/mL (≈ 2.96 µM); in experiment [4] it was 1 µg/mL (≈ 2.96 µM); in [5], 1 µg/mL (≈ 2.96 µM). Moreover, the MIC50 (in experiment [6]; in experiment [7]; against E. faecalis; in [8]; in experiment [9]; in experiment [10]) was 1 µg/mL (≈ 2.96 µM) in each case. Besides, the MIC90 in [1] is 1 µg/mL (≈ 2.96 µM); against VanC enterococci (22), 2 µg/mL (≈ 5.93 µM); in experiment [2], 1 µg/mL (≈ 2.96 µM); in experiment [3], 1 µg/mL (≈ 2.96 µM); in [4], 1 µg/mL (≈ 2.96 µM); in experiment [5] it was 1 µg/mL (≈ 2.96 µM). The MIC90 came to 2 µg/mL (≈ 5.93 µM) in experiment [6]; 1 µg/mL (≈ 2.96 µM) in experiment [7]; 1 µg/mL (≈ 2.96 µM) in the experiment with E. faecalis; 1 µg/mL (≈ 2.96 µM) in [8]; 1 µg/mL (≈ 2.96 µM) in [9]; 1 µg/mL (≈ 2.96 µM) in [10].
